Each structure is given as a SMILES string. Where two headings read alike, the source gives them in different places.

The target in one experiment is sigma 2 receptor (Homo sapiens, UniProt Q5BJF2). The experiment is described as follows: Sigma 2 receptor radioligand competition binding. The conditions noted are these: for Ki ratio Sig1R/Sig2R: Table 1, ratio of Sig1R Ki to Sig2R Ki.
Another experiment has as its target KOR (Homo sapiens, UniProt P41145). The experiment is described as follows: Radioligand competition binding, KOR. The settings on record: Table 5; Cheng-Prusoff from best fit IC50; some values marked (AVE).
A further experiment concerns the target 5-HT7 (Homo sapiens, UniProt P34969). The experiment is described as follows: Radioligand competition binding, 5-HT7. The settings on record: Table 5; Cheng-Prusoff from best fit IC50.
The next experiment concerns the target sigma 1 receptor (Homo sapiens, UniProt Q99720). The experiment is described as follows: Sigma 1 receptor radioligand competition binding.
A further experiment addresses 5-ht5a (Homo sapiens, UniProt P47898). The experiment is described as follows: Radioligand competition binding, 5-ht5a. The settings on record: Table 5; Cheng-Prusoff from best fit IC50.
A further experiment has as its target D5 (Homo sapiens, UniProt P21918). The experiment is described as follows: Radioligand competition binding, D5. The conditions noted are these: Table 5; Cheng-Prusoff from best fit IC50.
The target in a further experiment is Alpha2B (Homo sapiens, UniProt P18089). The experiment is described as follows: Radioligand competition binding, Alpha2B. The conditions noted are these: Table 5; Cheng-Prusoff from best fit IC50.
The next experiment deals with 5-HT2B (Homo sapiens, UniProt P41595). The experiment is described as follows: Radioligand competition binding, 5-HT2B. The conditions noted are these: Table 5; Cheng-Prusoff from best fit IC50.
In the next experiment the target is H2 (Homo sapiens, UniProt P25021). The experiment is described as follows: Radioligand competition binding, H2. The settings on record: Table 5; Cheng-Prusoff from best fit IC50.
The next experiment deals with MOR (Homo sapiens, UniProt P35372). The experiment is described as follows: Radioligand competition binding, MOR. The conditions noted are these: Table 5; Cheng-Prusoff from best fit IC50.
A further experiment deals with 5-HT6 (Homo sapiens, UniProt P50406). The experiment is described as follows: Radioligand competition binding, 5-HT6. The conditions noted are these: Table 5; Cheng-Prusoff from best fit IC50.
For another experiment, the target named is 5-HT2A (Homo sapiens, UniProt P28223). The experiment is described as follows: Radioligand competition binding, 5-HT2A. The settings on record: Table 5; Cheng-Prusoff from best fit IC50.
The next experiment has as its target 5-HT1D (Homo sapiens, UniProt P28221). The experiment is described as follows: Radioligand competition binding, 5-HT1D. The settings on record: Table 5; Cheng-Prusoff from best fit IC50.
The target in the next experiment is 5-HT1B (Homo sapiens, UniProt P28222). The experiment is described as follows: Radioligand competition binding, 5-HT1B. The settings on record: Table 5; Cheng-Prusoff from best fit IC50.
The next experiment concerns the target M5 (Homo sapiens, UniProt P08912). The experiment is described as follows: Radioligand competition binding, M5. The settings on record: Table 5; Cheng-Prusoff from best fit IC50.
The target of another experiment is D3 (Homo sapiens, UniProt P35462). The experiment is described as follows: Radioligand competition binding, D3. The conditions noted are these: Table 5; Cheng-Prusoff from best fit IC50; one value marked (AVE).
Another experiment has as its target D1 (Homo sapiens, UniProt P21728). The experiment is described as follows: Radioligand competition binding, D1. The conditions noted are these: Table 5; Cheng-Prusoff from best fit IC50; some values marked (AVE).
The target in the next experiment is H3 (Homo sapiens, UniProt Q9Y5N1). The experiment is described as follows: Radioligand competition binding, H3. The conditions noted are these: Table 5; Cheng-Prusoff from best fit IC50.
Another experiment addresses H1 (Homo sapiens, UniProt P35367). The experiment is described as follows: Radioligand competition binding, H1. The conditions noted are these: Table 5; Cheng-Prusoff from best fit IC50.
A further experiment concerns the target T1, Alpha2A (Homo sapiens, UniProt P08913).
T1 sequence (P08913 1-465): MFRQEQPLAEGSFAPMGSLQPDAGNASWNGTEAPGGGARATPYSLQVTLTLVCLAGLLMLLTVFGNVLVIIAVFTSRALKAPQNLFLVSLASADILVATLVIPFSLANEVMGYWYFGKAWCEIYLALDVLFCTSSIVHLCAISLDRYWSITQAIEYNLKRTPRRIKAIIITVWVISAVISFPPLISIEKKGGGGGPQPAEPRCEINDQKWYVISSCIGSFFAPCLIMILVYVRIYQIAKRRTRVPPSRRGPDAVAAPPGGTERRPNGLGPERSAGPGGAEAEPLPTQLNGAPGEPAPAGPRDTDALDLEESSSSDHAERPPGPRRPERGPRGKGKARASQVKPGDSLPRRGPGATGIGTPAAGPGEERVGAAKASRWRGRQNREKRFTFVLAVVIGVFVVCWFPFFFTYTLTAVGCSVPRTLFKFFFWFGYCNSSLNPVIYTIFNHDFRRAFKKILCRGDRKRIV
The experiment is described as follows: Radioligand competition binding, Alpha2A. The settings on record: Table 5; Cheng-Prusoff from best fit IC50.

In a further experiment the target is T2, 5-HT2C (Homo sapiens, UniProt P28335).
T2 sequence (P28335 33-458): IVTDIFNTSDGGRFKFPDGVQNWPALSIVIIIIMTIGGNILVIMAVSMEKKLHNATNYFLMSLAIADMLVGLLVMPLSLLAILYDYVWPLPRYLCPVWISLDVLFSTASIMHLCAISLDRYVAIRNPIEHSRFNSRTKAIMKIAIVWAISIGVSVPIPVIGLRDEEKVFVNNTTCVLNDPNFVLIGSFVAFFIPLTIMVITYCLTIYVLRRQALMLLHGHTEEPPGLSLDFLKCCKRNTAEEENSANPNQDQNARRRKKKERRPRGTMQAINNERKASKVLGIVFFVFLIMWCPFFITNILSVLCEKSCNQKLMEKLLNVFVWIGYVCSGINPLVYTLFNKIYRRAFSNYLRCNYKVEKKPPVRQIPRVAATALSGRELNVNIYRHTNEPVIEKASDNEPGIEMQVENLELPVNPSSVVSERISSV
The experiment is described as follows: Radioligand competition binding, 5-HT2C. The conditions noted are these: Table 5; Cheng-Prusoff from best fit IC50.

Another experiment has as its target H4 (Homo sapiens, UniProt Q9H3N8). The experiment is described as follows: Radioligand competition binding, H4. The settings on record: Table 5; Cheng-Prusoff from best fit IC50; value marked (AVE).
A further experiment has as its target PBR (UniProt P16257). The experiment is described as follows: Radioligand competition binding, PBR. The conditions noted are these: Table 5; Cheng-Prusoff from best fit IC50; one value marked (AVE).
In a further experiment the target is T3, D4 (Homo sapiens, UniProt P21917).
T3 sequence (P21917 1-419): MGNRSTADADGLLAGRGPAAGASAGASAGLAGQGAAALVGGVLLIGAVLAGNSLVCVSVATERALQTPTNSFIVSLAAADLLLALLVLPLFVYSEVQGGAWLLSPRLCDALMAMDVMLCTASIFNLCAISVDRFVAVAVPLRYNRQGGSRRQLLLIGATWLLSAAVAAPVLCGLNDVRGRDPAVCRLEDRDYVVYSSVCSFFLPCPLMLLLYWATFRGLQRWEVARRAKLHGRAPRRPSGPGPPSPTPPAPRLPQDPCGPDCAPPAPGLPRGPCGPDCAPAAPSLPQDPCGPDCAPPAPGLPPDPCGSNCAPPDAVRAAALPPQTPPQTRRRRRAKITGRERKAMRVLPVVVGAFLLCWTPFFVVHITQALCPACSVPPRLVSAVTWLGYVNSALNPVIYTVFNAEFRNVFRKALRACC
The experiment is described as follows: Radioligand competition binding, D4. The conditions noted are these: Table 5; Cheng-Prusoff from best fit IC50.

Another experiment deals with Alpha1D (Homo sapiens, UniProt P25100). The experiment is described as follows: Radioligand competition binding, Alpha1D. The conditions noted are these: Table 5; Cheng-Prusoff from best fit IC50.
In the next experiment the target is Alpha1A (Homo sapiens, UniProt P35348). The experiment is described as follows: Radioligand competition binding, Alpha1A. The conditions noted are these: Table 5; Cheng-Prusoff from best fit IC50.
Another experiment deals with T4, 5-HT1A (Homo sapiens, UniProt P08908).
T4 sequence (P08908 1-422): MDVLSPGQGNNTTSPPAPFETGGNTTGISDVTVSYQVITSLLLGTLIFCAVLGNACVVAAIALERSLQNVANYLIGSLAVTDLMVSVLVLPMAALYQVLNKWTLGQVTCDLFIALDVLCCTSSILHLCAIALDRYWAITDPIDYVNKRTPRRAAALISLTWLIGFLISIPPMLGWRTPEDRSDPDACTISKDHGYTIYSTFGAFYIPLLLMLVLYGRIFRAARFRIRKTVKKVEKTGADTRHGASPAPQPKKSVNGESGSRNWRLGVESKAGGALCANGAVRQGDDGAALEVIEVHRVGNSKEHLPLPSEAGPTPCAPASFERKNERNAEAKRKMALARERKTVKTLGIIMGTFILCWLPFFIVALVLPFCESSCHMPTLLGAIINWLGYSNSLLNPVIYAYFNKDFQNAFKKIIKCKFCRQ
The experiment is described as follows: Radioligand competition binding, 5-HT1A. The conditions noted are these: Table 5; Cheng-Prusoff from best fit IC50.

For another experiment, the target named is SERT (Homo sapiens, UniProt P31645). The experiment is described as follows: Radioligand competition binding, SERT. The conditions noted are these: Table 5; Cheng-Prusoff from best fit IC50.
The target in the next experiment is M4 (Homo sapiens, UniProt P08173). The experiment is described as follows: Radioligand competition binding, M4. The settings on record: Table 5; Cheng-Prusoff from best fit IC50; one value marked (AVE).
Setting [1] is: Table 5, Cheng-Prusoff from best fit IC50, read-out: Ki Sigma 2.
Where [2] appears, read: Table 1, 7-piperazinyl-tetrahydronaphthalene analogs, read-out: Ki (nM) Sig2R.
The mark [3] stands for this setting: Table 1, 7-piperazinyl-tetrahydronaphthalene analogs, read-out: Ki (nM) Sig1R.

As for `CN(CCCO)C1CCCc2ccc(-c3ccc(C(F)(F)F)cc3)cc21` (stereo not drawn) [MDW-1-144, 3-(Methyl(7-(4-(trifluoromethyl)phenyl)-1,2,3,4-tetrahydronaphthalen-1-yl)amino)propan-1-ol], the Ki on sigma 2 receptor (setting [1]) is 50 nM; on KOR, 154 nM; on 5-HT7, 2400 nM; at sigma 1 receptor (Table 5, Cheng-Prusoff from best fit IC50, read-out: Ki Sigma 1), 1270 nM; at 5-ht5a, > 10000 nM; on D5, > 10000 nM. For the same compound, the Ki at Alpha2B worked out at 524 nM; at 5-HT2B, 3590 nM; on H2 it was 327 nM; at MOR, 307 nM.
For `CCCN1CCN(c2ccc3c(c2)C(N(C)C(=O)OCc2ccccc2)CCC3)CC1` (stereo not drawn) [MDW-2-76, Benzyl methyl(7-(4-propylpiperazin-1-yl)-1,2,3,4-tetrahydronaphthalen-1-yl)carbamate], the inhibition constant Ki amounted to 778 nM on 5-HT6; 315 nM at 5-HT2A; 135 nM at 5-HT1D; 362 nM at 5-HT1B; 6620 nM on M5; 6 nM at sigma 2 receptor (setting [2]). For the same compound, the Ki stood at 5.5 nM on sigma 2 receptor (setting [1]); 438 nM at D3; 459 nM at 5-HT7; 690 nM at D1; 200 nM on sigma 1 receptor (setting [3]); 1350 nM at H3. The Ki at H1 amounted to 20 nM; at Alpha2A it was 1030 nM; on D5 it was 3960 nM; on 5-HT2C, 762 nM; at H4 it was 5880 nM; on PBR, 8330 nM. Besides, the Ki at Alpha2B was determined as 3330 nM; at 5-HT2B, 100 nM; at D4, 6660 nM; at Alpha1D, 2600 nM; on H2 it was 302 nM; on Alpha1A, 2360 nM. For the same compound, at 5-HT1A, the Ki turned out to be 156 nM. Also, the “Ki ratio Sig1R/Sig2R” value at sigma 2 receptor worked out at 36.
On to `CCN(CC)C(=O)CCN1CCN(c2ccc3c(c2)C(N(C)C(=O)OCc2ccccc2)CCC3)CC1` (stereo not drawn) [MDW-1-213, Benzyl (7-(4-(3-(diethylamino)-3-oxopropyl)piperazin-1-yl)-1,2,3,4-tetrahydronaphthalen-1-yl)(methyl)carbamate], for which the inhibitory constant (Ki) was determined as 932 nM at 5-HT6; 957 nM at 5-HT2A; 1360 nM at 5-HT1D; 317 nM at 5-HT1B; 7 nM on sigma 2 receptor (setting [2]); 7.2 nM at sigma 2 receptor (setting [1]). Also, the inhibition constant Ki at KOR was 5350 nM; on D3, 852 nM; at 5-HT7, 828 nM; at D1, 4050 nM; on sigma 1 receptor (setting [3]) it was 2100 nM; on 5-ht5a, 1880 nM. The Ki at SERT is > 10000 nM; at 5-HT2C it was 2630 nM; at PBR, 1200 nM; at 5-HT2B, 692 nM; at D4 it was 319 nM; on M4, 3280 nM. Also, the figures for the Ki on H2 and at 5-HT1A were 333 nM and 335 nM, respectively. For the same compound, the “Ki ratio Sig1R/Sig2R” value on sigma 2 receptor was 292.

Source of the values: patent US20210323913A1, “SIGMA RECEPTOR BINDERS” (BOARD OF REGENTS, THE UNIVERSITY OF TEXAS SYSTEM, priority 2016, published 2021).
